Key:
Assay in all cases: relative viability (nuclei count vs DMSO), 5 days (fraction); higher = more cells survive
Masitinib + Navitoclax = compound: Cc1ccc(NC(=O)c2ccc(CN3CCN(C)CC3)cc2)cc1Nc1nc(-c2cccnc2)cs1 [Masitinib] + CC1(C)CCC(c2ccc(Cl)cc2)=C(CN2CCN(c3ccc(C(=O)NS(=O)(=O)c4ccc(N[C@H](CCN5CCOCC5)CSc5ccccc5)c(S(=O)(=O)C(F)(F)F)c4)cc3)CC2)C1 [Navitoclax] (partner 0.5 µM)
Outline: (§1)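 A single step with final 0.05% Triton X-100, 1% formaldehyde and 1 ug/ml Hoechst fixed the cells and stained nuclei 5 days after treatment. Lung cancer cell lines in 1536-well plates had been treated by pin tool the day after seeding with one drug alone or a fixed anchor-drug dose plus five library-drug doses (not always all listed) in √10 steps, and nuclei were counted on 4× images. Relative viability is the ratio of nuclei in treated wells to nuclei in vehicle wells, taken as the median of duplicate plates.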

[1] = compound: CC1=CC(=CC=C1)NC2=NC(=CS2)C3=CC=NC=C3 + N=C(N)NC(=N)NCCc1ccccc1 [Phenformin] (partner 250 µM)
Outline: as §1

[2] = compound: CC1=CC(=CC=C1)NC2=NC(=CS2)C3=CC=NC=C3 + Nc1ncn([C@H]2C[C@H](O)[C@@H](CO)O2)c(=O)n1 [Decitabine] (partner 2 µM)
Outline: as §1

[3] = compound: CC1=CC(=CC=C1)NC2=NC(=CS2)C3=CC=NC=C3 + CC(=O)Nc1cccc(-n2c(=O)n(C3CC3)c(=O)c3c(Nc4ccc(I)cc4F)n(C)c(=O)c(C)c32)c1 [Trametinib] (partner 0.02 µM)
Outline: as §1

For EBC-1, the relative viability (Masitinib + Navitoclax; first compound 0.01 µM) was 0.363, the relative viability (Masitinib + Navitoclax; first compound 0.03162 µM) was 0.397 and the relative viability (Masitinib + Navitoclax; first compound 0.1 µM) was 0.41. The relative viability (Masitinib + Navitoclax; first compound 0.3162 µM) was 0.385 and the relative viability (Masitinib + Navitoclax; first compound 1 µM) was 0.494.
With NCI-H1563 the relative viability ([1]; first compound 0.08 µM) was 0.725, the relative viability ([1]; first compound 0.253 µM) was 0.634 and the relative viability ([1]; first compound 0.8 µM) was 0.691. For the same cell line, the relative viability ([1]; first compound 2.53 µM) was 0.733 and the relative viability ([1]; first compound 8 µM) was 0.657.
Cell Line NCI-H2342 has a relative viability ([2]; first compound 0.08 µM) of 0.691, a relative viability ([2]; first compound 0.253 µM) of 0.773 and a relative viability ([2]; first compound 0.8 µM) of 0.657. For the same cell line, the relative viability ([2]; first compound 2.53 µM) was 0.77, the relative viability ([2]; first compound 8 µM) was 0.761 and the relative viability ([1]; first compound 0.08 µM) was 0.483. For the same cell line, the relative viability ([1]; first compound 0.253 µM) was 0.582, the relative viability ([1]; first compound 0.8 µM) was 0.603 and the relative viability ([1]; first compound 2.53 µM) was 0.518. It also gave a relative viability ([1]; first compound 8 µM) of 0.568, a relative viability ([3]; first compound 0.08 µM) of 0.686 and a relative viability ([3]; first compound 0.253 µM) of 0.729. For the same cell line, the relative viability ([3]; first compound 0.8 µM) was 0.695, the relative viability ([3]; first compound 2.53 µM) was 0.74 and the relative viability ([3]; first compound 8 µM) was 0.732.
With NCI-H661 the relative viability ([2]; first compound 0.08 µM) was 0.514, the relative viability ([2]; first compound 0.253 µM) was 0.585 and the relative viability ([2]; first compound 0.8 µM) was 0.556. The relative viability ([2]; first compound 2.53 µM) was 0.505, the relative viability ([2]; first compound 8 µM) was 0.533 and the relative viability ([1]; first compound 0.08 µM) was 0.281. For the same cell line, the relative viability ([1]; first compound 0.253 µM) was 0.3, the relative viability ([1]; first compound 0.8 µM) was 0.278 and the relative viability ([1]; first compound 2.53 µM) was 0.285. For the same cell line, the relative viability ([1]; first compound 8 µM) was 0.284, the relative viability ([3]; first compound 0.08 µM) was 0.478 and the relative viability ([3]; first compound 0.253 µM) was 0.583. The relative viability ([3]; first compound 0.8 µM) was 0.579, the relative viability ([3]; first compound 2.53 µM) was 0.54 and the relative viability ([3]; first compound 8 µM) was 0.48.
Cell Line NCI-H650 has a relative viability ([2]; first compound 0.08 µM) of 0.331, a relative viability ([2]; first compound 0.253 µM) of 0.3 and a relative viability ([2]; first compound 0.8 µM) of 0.336. The relative viability ([2]; first compound 2.53 µM) was 0.386, the relative viability ([2]; first compound 8 µM) was 0.334 and the relative viability ([1]; first compound 0.08 µM) was 0.426. The relative viability ([1]; first compound 0.253 µM) was 0.407, the relative viability ([1]; first compound 0.8 µM) was 0.476 and the relative viability ([1]; first compound 2.53 µM) was 0.372. For the same cell line, the relative viability ([1]; first compound 8 µM) was 0.502, the relative viability ([3]; first compound 0.08 µM) was 0.837 and the relative viability ([3]; first compound 0.253 µM) was 1.07. It also gave a relative viability ([3]; first compound 0.8 µM) of 1.04, a relative viability ([3]; first compound 2.53 µM) of 0.956 and a relative viability ([3]; first compound 8 µM) of 0.964.
A549 was tested, and the relative viability ([2]; first compound 0.08 µM) was 0.281, the relative viability ([2]; first compound 0.253 µM) was 0.173 and the relative viability ([2]; first compound 0.8 µM) was 0.284. For the same cell line, the relative viability ([2]; first compound 2.53 µM) was 0.275, the relative viability ([2]; first compound 8 µM) was 0.256 and the relative viability ([1]; first compound 0.08 µM) was 0.179. For the same cell line, the relative viability ([1]; first compound 0.253 µM) was 0.179, the relative viability ([1]; first compound 0.8 µM) was 0.15 and the relative viability ([1]; first compound 2.53 µM) was 0.169. For the same cell line, the relative viability ([1]; first compound 8 µM) was 0.235, the relative viability (Masitinib + Navitoclax; first compound 0.01 µM) was 1.18 and the relative viability (Masitinib + Navitoclax; first compound 0.03162 µM) was 1.19. The relative viability (Masitinib + Navitoclax; first compound 0.1 µM) was 1.41, the relative viability (Masitinib + Navitoclax; first compound 0.3162 µM) was 1.19 and the relative viability (Masitinib + Navitoclax; first compound 1 µM) was 1.23.
In the case of NCI-H2228, the relative viability ([1]; first compound 0.08 µM) is reported as 0.265, the relative viability ([1]; first compound 0.253 µM) is reported as 0.35 and the relative viability ([1]; first compound 0.8 µM) is reported as 0.266. The relative viability ([1]; first compound 2.53 µM) was 0.313, the relative viability ([1]; first compound 8 µM) was 0.332 and the relative viability ([3]; first compound 0.08 µM) was 0.418. It also gave a relative viability ([3]; first compound 0.253 µM) of 0.48, a relative viability ([3]; first compound 0.8 µM) of 0.501 and a relative viability ([3]; first compound 2.53 µM) of 0.44. The relative viability ([3]; first compound 8 µM) was 0.385, the relative viability (Masitinib + Navitoclax; first compound 0.01 µM) was 0.899 and the relative viability (Masitinib + Navitoclax; first compound 0.03162 µM) was 1.05. It also gave a relative viability (Masitinib + Navitoclax; first compound 0.1 µM) of 1.08, a relative viability (Masitinib + Navitoclax; first compound 0.3162 µM) of 0.705 and a relative viability (Masitinib + Navitoclax; first compound 1 µM) of 0.817.
With NCI-H1299 the relative viability (Masitinib + Navitoclax; first compound 0.01 µM) was 1.08, the relative viability (Masitinib + Navitoclax; first compound 0.03162 µM) was 1.03 and the relative viability (Masitinib + Navitoclax; first compound 0.1 µM) was 1.04. The relative viability (Masitinib + Navitoclax; first compound 0.3162 µM) was 1.04 and the relative viability (Masitinib + Navitoclax; first compound 1 µM) was 1.03.
In the case of SW 900, the relative viability ([2]; first compound 0.08 µM) is reported as 0.443, the relative viability ([2]; first compound 0.253 µM) is reported as 0.381 and the relative viability ([2]; first compound 0.8 µM) is reported as 0.353. The relative viability ([2]; first compound 2.53 µM) was 0.389, the relative viability ([2]; first compound 8 µM) was 0.441 and the relative viability ([1]; first compound 0.08 µM) was 0.555. It also gave a relative viability ([1]; first compound 0.253 µM) of 0.446, a relative viability ([1]; first compound 0.8 µM) of 0.673 and a relative viability ([1]; first compound 2.53 µM) of 0.461. The relative viability ([1]; first compound 8 µM) was 0.532, the relative viability ([3]; first compound 0.08 µM) was 0.518 and the relative viability ([3]; first compound 0.253 µM) was 0.539. For the same cell line, the relative viability ([3]; first compound 0.8 µM) was 0.913, the relative viability ([3]; first compound 2.53 µM) was 0.508 and the relative viability ([3]; first compound 8 µM) was 0.667.
In the case of IA-LM, the relative viability (Masitinib + Navitoclax; first compound 0.01 µM) is reported as 0.733, the relative viability (Masitinib + Navitoclax; first compound 0.03162 µM) is reported as 0.699 and the relative viability (Masitinib + Navitoclax; first compound 0.1 µM) is reported as 1.02. The relative viability (Masitinib + Navitoclax; first compound 0.3162 µM) was 0.689 and the relative viability (Masitinib + Navitoclax; first compound 1 µM) was 1.01.
LCLC-103H was tested, and the relative viability ([2]; first compound 0.08 µM) was 0.72, the relative viability ([2]; first compound 0.253 µM) was 0.664 and the relative viability ([2]; first compound 0.8 µM) was 0.672. The relative viability ([2]; first compound 2.53 µM) was 0.665, the relative viability ([2]; first compound 8 µM) was 0.573 and the relative viability ([1]; first compound 0.08 µM) was 0.284. The relative viability ([1]; first compound 0.253 µM) was 0.308, the relative viability ([1]; first compound 0.8 µM) was 0.327 and the relative viability ([1]; first compound 2.53 µM) was 0.309. For the same cell line, the relative viability ([1]; first compound 8 µM) was 0.27, the relative viability ([3]; first compound 0.08 µM) was 0.629 and the relative viability ([3]; first compound 0.253 µM) was 0.593. The relative viability ([3]; first compound 0.8 µM) was 0.586, the relative viability ([3]; first compound 2.53 µM) was 0.579 and the relative viability ([3]; first compound 8 µM) was 0.658.
In the case of NCI-H1648, the relative viability ([2]; first compound 0.08 µM) is reported as 0.345, the relative viability ([2]; first compound 0.253 µM) is reported as 0.42 and the relative viability ([2]; first compound 0.8 µM) is reported as 0.496. It also gave a relative viability ([2]; first compound 2.53 µM) of 0.356, a relative viability ([2]; first compound 8 µM) of 0.376 and a relative viability ([3]; first compound 0.08 µM) of 0.353. For the same cell line, the relative viability ([3]; first compound 0.253 µM) was 0.569, the relative viability ([3]; first compound 0.8 µM) was 0.444 and the relative viability ([3]; first compound 2.53 µM) was 0.471. The relative viability ([3]; first compound 8 µM) was 0.588.
